Like-named read-outs stand apart in the source and are kept apart here.
Tests used:
[1] = test system: iSeroSnFR; assay: Dose-response of 5-HT binding to extracellular membrane-tethered iSeroSnFR; format: cell-based; conditions: HEK293MSR cells, not saturated at 10 mM 5-HT
Excerpt: Error bars represent SEM.
(2 pictures or pasted objects on this page, not shown here)

[2] = test system: hSERT mutant I172M; conditions: fluorescence assay; 10 µM 5-HT; N = 3
Protocol: (§1) For the uptake inhibition assay determining IC50 values, the pre-incubation solutions contained 12 increasing concentrations of an hSERT or OCT2 inhibitor. […] The change in fluorescence was determined 10 min after adding the incubation solution. […] The raw data was fitted to a non-linear fit in GraphPad Prism ([inhibitor] vs response (three parameters) for hSERT data and [inhibitor] vs response – variable slope (four parameters) for hOCT2 data) and normalized to the obtained top and bottom plateau as follows: rawdata-bottomplateau/topplateau-bottomplateau . The same non-linear fit of the normalized data was used to calculate logIC50 and IC50 values. IC50 values were converted to pKi values using the Cheng-Prusoff equation[33]. pKi=pIC50/1+[S]/Km

[3] = test system: hSERT mutant I172M; conditions: radiotracer assay; 10 µM [3H]5-HT; N = 3
Protocol: The uptake was terminated by washing the cells with ice-cold PBSCM, 50 µl Microscint (Perkin Elmer) was added and radioactivity was counted in a TopCounter microplate scintillation counter approximately one hour after microscint addition. The raw data was fitted to a non-linear fit in GraphPad Prism ([inhibitor] vs response (three parameters)) and normalized to the obtained top and bottom plateau as follows: rawdata-bottomplateau/topplateau-bottomplateau . The same non-linear fit of the normalized data was used to calculate logIC50 and IC50 values.

[4] = molecular target: T1, hSERT (Homo sapiens, UniProt P31645); assay: 5-HT_FAsTR fluorescence efflux assay
Protocol: The efflux inducing drug was added at time point 0 and a time window showing efflux in the linear range was chosen for further analysis. The fluorescence intensity measured in response to the drug was normalized to the mean fluorescence intensity measured 2.5 min, 5 min and 7.5 min before the addition of the drug. A simple linear regression was performed with GraphPad Prism for the time window showing efflux in the linear range and the slope of the linear decrease in fluorescence in response to the drug was plotted against increasing drug concentrations. A non-linear fit ([Inhibitor] vs. response (three parameters), GraphPad Prism) was used to calculate EC50 as well as the top and bottom plateau. The drug-induced efflux was calculated by subtracting the top plateau from the bottom plateau.

[5] = molecular target: T1, hSERT; format: cell-based; set-up: expressed in transfected cells; host or cells: HEK293MSR cells stably expressing cytoplasmic iSeroSnFR; conditions: 5 µM inhibitor, control experiment
Excerpt: Data were fitted in Graphpad Prism to the in-built model for Michaelis–Menten kinetics using robust non-linear regression to calculate Km and Vmax.

[6] = molecular target: T2, hOCT2 (Homo sapiens, UniProt O15244); assay: 5-HT_FAsTR fluorescence uptake inhibition assay, hOCT2; format: cell-based; conditions: corresponding to the pKi
T2 sequence (O15244 1-555): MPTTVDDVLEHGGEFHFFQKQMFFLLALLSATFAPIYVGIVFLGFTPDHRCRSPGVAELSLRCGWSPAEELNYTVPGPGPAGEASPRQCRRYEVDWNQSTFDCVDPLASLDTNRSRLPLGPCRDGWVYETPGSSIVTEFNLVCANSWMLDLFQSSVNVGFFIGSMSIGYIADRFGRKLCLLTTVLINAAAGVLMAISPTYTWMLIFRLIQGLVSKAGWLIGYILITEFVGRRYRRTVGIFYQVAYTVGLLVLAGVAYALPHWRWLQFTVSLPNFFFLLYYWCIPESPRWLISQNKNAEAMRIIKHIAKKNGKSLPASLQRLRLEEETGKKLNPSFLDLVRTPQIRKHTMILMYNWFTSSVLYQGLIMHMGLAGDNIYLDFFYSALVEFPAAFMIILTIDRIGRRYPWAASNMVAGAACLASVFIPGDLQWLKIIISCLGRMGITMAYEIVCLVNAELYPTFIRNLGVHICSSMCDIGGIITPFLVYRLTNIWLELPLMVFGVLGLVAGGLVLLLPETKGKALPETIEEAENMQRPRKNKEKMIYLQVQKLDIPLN
Protocol: as §1

[7] = test system: NCCc1c[nH]c2ccc(O)cc12; assay: cells, lysate or membranes; conditions: other: HEK293MSR_iSeroSnFR cells with hSERT, 10 min, N = 7, pH 7.4
[8] = substrate: NCCc1c[nH]c2ccc(O)cc12; assay: cells, lysate or membranes; conditions: other: hOCT2-transfected cells; non-specific uptake determined with imipramine; N = 3; pH 7.4

T1 sequence (P31645 whole entry): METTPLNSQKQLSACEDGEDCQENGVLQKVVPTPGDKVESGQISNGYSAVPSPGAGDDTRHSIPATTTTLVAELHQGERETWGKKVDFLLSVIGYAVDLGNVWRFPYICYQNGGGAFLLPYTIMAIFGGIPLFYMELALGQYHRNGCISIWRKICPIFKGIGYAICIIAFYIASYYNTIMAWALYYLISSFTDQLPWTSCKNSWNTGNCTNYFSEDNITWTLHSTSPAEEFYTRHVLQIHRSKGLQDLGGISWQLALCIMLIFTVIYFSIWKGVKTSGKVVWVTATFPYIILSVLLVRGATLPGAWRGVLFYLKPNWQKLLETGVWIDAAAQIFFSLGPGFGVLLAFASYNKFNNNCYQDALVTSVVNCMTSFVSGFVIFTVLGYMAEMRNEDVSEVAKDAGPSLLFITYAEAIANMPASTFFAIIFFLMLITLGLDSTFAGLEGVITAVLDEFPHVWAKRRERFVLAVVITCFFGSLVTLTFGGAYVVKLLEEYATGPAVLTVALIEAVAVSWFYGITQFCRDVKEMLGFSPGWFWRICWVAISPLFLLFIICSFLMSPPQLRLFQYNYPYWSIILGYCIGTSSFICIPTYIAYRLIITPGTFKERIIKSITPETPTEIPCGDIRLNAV

## NCCc1c[nH]c2ccc(O)cc12 [5-HT, 5-hydroxytryptamine]
[1]
  EC50: ≥ 1520 µM

## CNC(C)Cc1ccc2c(c1)OCO2 (stereo not drawn) [MDMA]
[2]
  fold decrease in potency, hSERT I172M compared to wild type (IC50 ratio): did not show any change
[3]
  fold decrease in potency, hSERT I172M compared to wild type (IC50 ratio): did not show any change
[4]
  EC50: 6.22 ± 1.62 µM
[4]; hSERT not present (empty vector), preloaded with 5-HT, N = 3
  fluorescence change ± SEM (drug-induced efflux rate): 0.06 ± 0.01 %/minute
[4]; hSERT-transfected cells preloaded with 10 µM 5-HT, N = 6
  maximum fluorescence change ± SEM (drug-induced efflux rate): 0.66 ± 0.13 %/minute
[4]; hSERT-transfected cells vs background
  release of 5-HT relative to background levels from passive diffusion: at least 11 fold

## C[Se+](C)CCCN1c2ccccc2CCc2ccc(Cl)cc21 [MJ1-53]
[5]
  effect of blocking the serotonin transporter on 5-HT uptake (fluorescence intensity): abolishes 5-HT uptake
[6]
  Ki: 0.164 µM

## hSERT (Homo sapiens)
[7]; non-specific uptake determined with MJ1-53
  Km: 1.25 ± 0.48 µM
[7]; non-specific uptake determined with S-Citalopram
  Km: 1.79 ± 0.19 µM

B1: hOCT2 (Homo sapiens) (protein)
chain: T2 sequence (O15244 1-555)
[8]
  Km: 183.6 ± 65.18 µM

Source: article PMC10951269, “5-HT_FAsTR: a versatile, label-free, high-throughput, fluorescence-based microplate assay to quantify serotonin transport and release” (Scientific Reports, 2024)
